Data from patent EP4700040A1, “PEPTIDE AND LUMINESCENT COMPLEX CONTAINING SAME” (Shenzhen Loggene Life Science & Technology Co., Ltd., priority 2023, dated 2024).

Assays:
PCT [1] = assay: Second library screening for PCT detection, clone supernatants, retest with CTZ-h (Example 4); format: biochemical, human; conditions: for Signal-to-noise ratio: PCT+/PCT-, MBP-PCT 3.3 ng/ml, CTZ-h; for PCT+: luminescence signal value with MBP-PCT 3.3 ng/ml; for PCT+ / PCT-: large subunit-rSCFV5 12.5 nM, CTZ-h 25 µM, 60 s; for PCT-: luminescence signal value, PBSAD control without PCT
Method: In order to further improve the signal-to-noise ratio and complementary activity of the luciferase dual-antibody complementary activation assay, novel complementary luciferase small subunits were prepared in this example. Large subunit-rSCFV5 fusion protein (SEQ ID NO: 87) was kept unchanged, and the small subunit sequence of the rSCFV18-RB073 fusion protein (SEQ ID NO: 89) were modified by semi-randomization. The theoretical diversity was 6912, the library capacity was 10^6, and 3,000 single clones were picked. The method of protein induction and expression was the same as that in Example 2.
Detection Methods: • (1) The concentration of large subunit-rSCFV5 fusion protein was diluted to 12.5 nM, and 15 µl was added per well; • (2) MBP-PCT fusion protein was diluted to 3.3 ng/ml with PBSAD, and 10 µl was added per well; • (3) HB2151 strain containing plasmids with different small subunit sequences were induced by IPTG at 30°C overnight, then treated with polymyxin B for 1.5h, and centrifuged to collect the supernatant, and 2.5µl supernatant was added per well; • (4) The above three components were slightly mixed, incubated at 37°C for 7 min, and Obuffer 6.37-3 containing Furimazine at a concentration of 25 µM was added, and after 3 min, the luminescence signal value was detected using a bioluminescence detector; and • (5) Clones with RLU higher than 10,000 were picked. The substrate was replaced with CTZ-h substrate for retesting (Obuffer 6.37-3 containing CTZ-h at a concentration of 25 µM was added, and after 60 s, the luminescence signal value was detected using a bioluminescence detector), and a PBSAD control was added to test the signal-to-noise ratio.

PCT [2] = assay: Sensitivity and linear range for PCT detection of preferred small subunits (Example 5); format: biochemical, human; conditions: for luminescence value: normalized; for Signal-to-noise ratio at 1000 pg/ml: large subunit 8.3~25 nM, small subunit fusion 30~180 nM, CTZ-h 15 µM
Method: Detection Methods: • (1) The concentration of large subunit-rSCFV5 fusion protein was diluted with PBSA to 8.3~25nM, and 15µl was added per well; • (2) MBP-PCT fusion proteins were diluted with PBSAD in a downward gradient starting from 2.5 µg/ml, and 10 µl was added per well; • (3) The rSCFV18-small subunit mutant-containing fusion protein was diluted with PBSA to 30~180 nM, and 15 µl was added per well; • (4) The above three components were slightly mixed, incubated at 37°C for 15 min, and Obuffer 6.37-3 containing CTZ-h at a concentration of 15 µM was added, and the luminescence signal value was immediately detected using a bioluminescence detector (the luminescence value was normalized);

Sequence | Signal-to-noise ratio (PCT [1]) | PCT+ (PCT [1]) | PCT- (PCT [1]) | other results
VSGYRIFEKKS [RC-129] | 5.8 | 12040 | 2068 | 
VSGYRIFEKKW [RC-113] | 5.3 | 6207 | 1176 | 
VDGYRLFERKS [RC-203] | 6.6 | 10062 | 1536 | 
VDGYRLFEKVS [RC-263] | 7.0 | 4768 | 685 | luminescence value (PCT [2]; PCT 0.0, background): 5000; luminescence value (PCT [2]; PCT 1 (pg/ml)): 5132; luminescence value (PCT [2]; PCT 3 (pg/ml)): 5234; luminescence value (PCT [2]; PCT 10 (pg/ml)): 5192; luminescence value (PCT [2]; PCT 30 (pg/ml)): 5647; luminescence value (PCT [2]; PCT 100 (pg/ml)): 7134; luminescence value (PCT [2]; PCT 1000 (pg/ml)): 28776; luminescence value (PCT [2]; PCT 10000 (pg/ml)): 240937; luminescence value (PCT [2]; PCT 100000 (pg/ml)): 1556694; luminescence value (PCT [2]; PCT 250000 (pg/ml)): 2230650; Signal-to-noise ratio at 1000 pg/ml (PCT [2]): 5.8
VSGYRLFDRVW [RC-220] | 5.7 | 6738 | 1192 | 
VEGYRLFERKS [RC-145] | 10.1 | 8198 | 808 | 
VEGYRLFEKIS [RC-239] | 6.0 | 10022 | 1676 | 
VEGWRLFDRKS [RC-232] | 5.8 | 18313 | 3183 | 
VSGYRLFDRVS [RC-032] | 4.8 | 9519 | 1998 | 
VEGYRLFDKVS [RC-087] | 8.0 | 6923 | 861 | 
VDGWRLFDKKS [RC-224] | 9.2 | 10561 | 1142 | luminescence value (PCT [2]; PCT 0.0, background): 5000; luminescence value (PCT [2]; PCT 1 (pg/ml)): 5021; luminescence value (PCT [2]; PCT 3 (pg/ml)): 5002; luminescence value (PCT [2]; PCT 10 (pg/ml)): 5260; luminescence value (PCT [2]; PCT 30 (pg/ml)): 5685; luminescence value (PCT [2]; PCT 100 (pg/ml)): 7341; luminescence value (PCT [2]; PCT 1000 (pg/ml)): 28543; luminescence value (PCT [2]; PCT 10000 (pg/ml)): 240337; luminescence value (PCT [2]; PCT 100000 (pg/ml)): 1453897; luminescence value (PCT [2]; PCT 250000 (pg/ml)): 1856339; Signal-to-noise ratio at 1000 pg/ml (PCT [2]): 5.7
VNGWRLFDKKS [RC-271] | 5.0 | 7132 | 1428 | 
VSGYRLFDKKW [RC-261] | 4.5 | 7217 | 1616 | 
VSGYRIFEKKS [RC-152] | 5.6 | 9688 | 1715 | 
VSGYRLFDKKS [RC-187] | 7.9 | 11049 | 1405 | luminescence value (PCT [2]; PCT 0.0, background): 5000; luminescence value (PCT [2]; PCT 1 (pg/ml)): 4944; luminescence value (PCT [2]; PCT 3 (pg/ml)): 4968; luminescence value (PCT [2]; PCT 10 (pg/ml)): 5099; luminescence value (PCT [2]; PCT 30 (pg/ml)): 5570; luminescence value (PCT [2]; PCT 100 (pg/ml)): 7032; luminescence value (PCT [2]; PCT 1000 (pg/ml)): 27642; luminescence value (PCT [2]; PCT 10000 (pg/ml)): 214329; luminescence value (PCT [2]; PCT 100000 (pg/ml)): 910908; luminescence value (PCT [2]; PCT 250000 (pg/ml)): 1012760; Signal-to-noise ratio at 1000 pg/ml (PCT [2]): 5.5
VEGYRLFERKS [RC-105] | 5.0 | 14534 | 2934 | 
VSGYRIFDKKS [RC-044] | 8.0 | 10392 | 1302 | 
VEGYRLFDKVS [RC-215] | 11.2 | 5972 | 531 | luminescence value (PCT [2]; PCT 0.0, background): 5000; luminescence value (PCT [2]; PCT 1 (pg/ml)): 5095; luminescence value (PCT [2]; PCT 3 (pg/ml)): 5206; luminescence value (PCT [2]; PCT 10 (pg/ml)): 5458; luminescence value (PCT [2]; PCT 30 (pg/ml)): 6156; luminescence value (PCT [2]; PCT 100 (pg/ml)): 7892; luminescence value (PCT [2]; PCT 1000 (pg/ml)): 35231; luminescence value (PCT [2]; PCT 10000 (pg/ml)): 296125; luminescence value (PCT [2]; PCT 100000 (pg/ml)): 1967363; luminescence value (PCT [2]; PCT 250000 (pg/ml)): 2983773; Signal-to-noise ratio at 1000 pg/ml (PCT [2]): 7.0
VEGYRLFDRKS [RC-218] | 7.9 | 7242 | 921 | luminescence value (PCT [2]; PCT 0.0, background): 5000; luminescence value (PCT [2]; PCT 1 (pg/ml)): 4937; luminescence value (PCT [2]; PCT 3 (pg/ml)): 4976; luminescence value (PCT [2]; PCT 10 (pg/ml)): 5164; luminescence value (PCT [2]; PCT 30 (pg/ml)): 5701; luminescence value (PCT [2]; PCT 100 (pg/ml)): 7494; luminescence value (PCT [2]; PCT 1000 (pg/ml)): 31585; luminescence value (PCT [2]; PCT 10000 (pg/ml)): 266213; luminescence value (PCT [2]; PCT 100000 (pg/ml)): 1757745; luminescence value (PCT [2]; PCT 250000 (pg/ml)): 2436323; Signal-to-noise ratio at 1000 pg/ml (PCT [2]): 6.3
VEGYRLFDKVS [RC-247] | 8.8 | 4398 | 497 | 
VEGWRIFERKW [RC-070] | 5.2 | 8980 | 1715 | 

Sequence | Signal-to-noise ratio (PCT [1]) | PCT+ (PCT [1]) | PCT- (PCT [1]) | other results
VEGYRLFEKIS [RC-082] | 5.8 | 12852 | 2232 | 
VDGWRLFDKKS [RC-103] | 6.5 | 8672 | 1337 | 
VEGYRLFEKVS [RC-042] | 9.7 | 5769 | 593 | 
VSGYRLFDRKS [RC-098] | 5.1 | 8666 | 1698 | 
VSGYRLFDKKS [RC-134] | 7.7 | 9409 | 1223 | 
VEGWRLFDRVS [RC-237] | 5.0 | 10821 | 2186 | 
VSGYRLFDKVS [RC-178] | 9.6 | 5708 | 593 | luminescence value (PCT [2]; PCT 0.0, background): 5000; luminescence value (PCT [2]; PCT 1 (pg/ml)): 4911; luminescence value (PCT [2]; PCT 3 (pg/ml)): 5152; luminescence value (PCT [2]; PCT 10 (pg/ml)): 5180; luminescence value (PCT [2]; PCT 30 (pg/ml)): 6047; luminescence value (PCT [2]; PCT 100 (pg/ml)): 8378; luminescence value (PCT [2]; PCT 1000 (pg/ml)): 41922; luminescence value (PCT [2]; PCT 10000 (pg/ml)): 350855; luminescence value (PCT [2]; PCT 100000 (pg/ml)): 1664322; luminescence value (PCT [2]; PCT 250000 (pg/ml)): 1858964; Signal-to-noise ratio at 1000 pg/ml (PCT [2]): 8.4
VDGWRLFDKKS [RC-175] | 11.8 | 6953 | 587 | 
VSGYRLFDKKW [RC-099] | 7.0 | 8149 | 1164 | luminescence value (PCT [2]; PCT 0.0, background): 5000; luminescence value (PCT [2]; PCT 1 (pg/ml)): 5106; luminescence value (PCT [2]; PCT 3 (pg/ml)): 5166; luminescence value (PCT [2]; PCT 10 (pg/ml)): 5453; luminescence value (PCT [2]; PCT 30 (pg/ml)): 5950; luminescence value (PCT [2]; PCT 100 (pg/ml)): 7470; luminescence value (PCT [2]; PCT 1000 (pg/ml)): 28688; luminescence value (PCT [2]; PCT 10000 (pg/ml)): 243815; luminescence value (PCT [2]; PCT 100000 (pg/ml)): 1744023; luminescence value (PCT [2]; PCT 250000 (pg/ml)): 2942238; Signal-to-noise ratio at 1000 pg/ml (PCT [2]): 5.7
VSGWRIFDKKS [RC-124] | 7.5 | 9280 | 1234 | 
VEGYRLFEKIS [RC-036] | 5.5 | 8563 | 1565 | 
VSGYRLFDKVS [RC-208] | 6.0 | 12303 | 2056 | 
VSGYRLFDKVS [RC-114] | 6.5 | 6401 | 982 | 
VSGYRLFDRKS [RC-018] | 6.6 | 13188 | 1998 | 
VSGWRIFDRKS [RC-041] | 4.7 | 11789 | 2495 | 
VSGYRLFDRKS [RC-228] | 5.4 | 16339 | 3000 | 
VNGWRIFDKKS [RC-242] | 5.9 | 9037 | 1524 | 
VSGYRIFERKW [RC-206] | 5.9 | 7413 | 1260 | 
VSGYRLFDRKW [RC-033] | 10.4 | 8509 | 820 | 
VDGWRLFERKS [RC-171] | 7.6 | 10309 | 1363 | 
